Source: ChEMBL document CHEMBL1153424, “Discovery of 4-(benzylaminomethylene)isoquinoline-1,3-(2H,4H)-diones and 4-[(pyridylmethyl)aminomethylene]isoquinoline-1,3-(2H,4H)-diones as potent and selective inhibitors of the cyclin-dependent kinase 4” (J Med Chem, 2009)

Experiments:
[1] = target: Cyclin-dependent kinase 2 (Homo sapiens, UniProt P24941); experiment: Inhibition of CDK2/Cyclin E assessed as inhibition of retinoblastoma susceptibility gene product phosphorylation
[2] = target: Cyclin-dependent kinase 4/cyclin D1 (Homo sapiens, UniProt P11802); experiment: (§1) Inhibition of CDK4/Cyclin D1 assessed as inhibition of retinoblastoma susceptibility gene product phosphorylation; assay type: protein-complex assay
Cyclin-dependent kinase 4/cyclin D1 (Homo sapiens, UniProt P11802), sequence (P11802 whole entry): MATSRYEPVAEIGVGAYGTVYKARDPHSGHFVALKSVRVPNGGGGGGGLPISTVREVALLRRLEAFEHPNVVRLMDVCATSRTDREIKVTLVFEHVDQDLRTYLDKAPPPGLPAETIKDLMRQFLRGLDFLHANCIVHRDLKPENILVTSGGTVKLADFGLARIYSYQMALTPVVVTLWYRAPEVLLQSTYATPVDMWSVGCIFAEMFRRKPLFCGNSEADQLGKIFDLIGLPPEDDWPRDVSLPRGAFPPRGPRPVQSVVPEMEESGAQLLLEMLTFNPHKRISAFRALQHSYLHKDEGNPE
Cyclin-dependent kinase 4/cyclin D1 (Homo sapiens, UniProt P11802), sequence (P24385 whole entry, further chain): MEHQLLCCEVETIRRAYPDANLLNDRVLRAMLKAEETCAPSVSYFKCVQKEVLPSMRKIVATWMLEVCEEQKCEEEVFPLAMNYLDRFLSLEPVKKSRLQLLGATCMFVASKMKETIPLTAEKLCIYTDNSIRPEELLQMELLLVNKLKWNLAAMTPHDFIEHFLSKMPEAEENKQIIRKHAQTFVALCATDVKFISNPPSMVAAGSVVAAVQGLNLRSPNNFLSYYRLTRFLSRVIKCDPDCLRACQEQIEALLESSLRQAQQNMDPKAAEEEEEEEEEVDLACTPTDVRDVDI

[3] = target: Cyclin-dependent kinase 1/cyclin B1 (Homo sapiens, UniProt P06493); experiment: (§2) Inhibition of CDK1/Cyclin B1 assessed as inhibition of retinoblastoma susceptibility gene product phosphorylation
Cyclin-dependent kinase 1/cyclin B1 (Homo sapiens, UniProt P06493), sequence (P06493 whole entry): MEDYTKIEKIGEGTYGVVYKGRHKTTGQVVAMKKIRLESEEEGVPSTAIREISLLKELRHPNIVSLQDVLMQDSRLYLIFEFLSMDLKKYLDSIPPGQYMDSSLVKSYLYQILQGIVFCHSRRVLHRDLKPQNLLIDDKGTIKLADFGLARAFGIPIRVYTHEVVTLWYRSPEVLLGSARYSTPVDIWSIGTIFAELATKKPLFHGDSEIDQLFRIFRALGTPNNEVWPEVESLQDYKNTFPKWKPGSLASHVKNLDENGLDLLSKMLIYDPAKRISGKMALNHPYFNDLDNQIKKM
Cyclin-dependent kinase 1/cyclin B1 (Homo sapiens, UniProt P06493), sequence (P14635 whole entry, further chain): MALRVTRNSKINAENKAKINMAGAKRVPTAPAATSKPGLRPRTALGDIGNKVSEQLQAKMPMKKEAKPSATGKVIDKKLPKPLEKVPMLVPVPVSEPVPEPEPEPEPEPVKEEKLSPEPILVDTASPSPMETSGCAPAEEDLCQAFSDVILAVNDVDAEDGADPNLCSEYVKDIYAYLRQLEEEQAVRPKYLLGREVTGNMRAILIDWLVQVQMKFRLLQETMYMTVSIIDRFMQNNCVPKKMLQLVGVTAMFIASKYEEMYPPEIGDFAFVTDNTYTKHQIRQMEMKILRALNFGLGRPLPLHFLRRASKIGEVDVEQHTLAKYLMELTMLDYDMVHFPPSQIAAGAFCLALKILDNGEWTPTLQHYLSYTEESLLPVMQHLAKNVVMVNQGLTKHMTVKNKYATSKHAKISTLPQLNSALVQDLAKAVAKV

[4] = system: HCT-116; experiment: cells; settings: Homo sapiens, HCT-116, 72 h
Description: Cytotoxicity against human HCT116 cells after 3 days by SRB assay

[5] = Metabolic stability in Sprague-Dawley rat liver microsome assessed as half life after 15 mins using NADPH cofactor; assay type: ADME; settings: liver microsomes
[6] = Metabolic stability in Sprague-Dawley rat liver microsome assessed as half life after 15 mins using NADPH/UDPGA cofactor; assay type: ADME; settings: liver microsomes
[7] = system: MCF7; experiment: cells; settings: Homo sapiens, MCF7, 72 h
Description: Cytotoxicity against human MCF7 cells after 3 days by SRB assay

[8] = target: Cyclin-dependent kinase 1/cyclin B1 (Homo sapiens, UniProt P06493+P14635); experiment: as §2
Cyclin-dependent kinase 1/cyclin B1 (Homo sapiens, UniProt P06493+P14635), sequence (P06493 whole entry): as the sequence (P06493 whole entry) above
Cyclin-dependent kinase 1/cyclin B1 (Homo sapiens, UniProt P06493+P14635), sequence (P14635 whole entry): as the sequence (P14635 whole entry, further chain) above

[9] = Selectivity for CDK4/Cyclin D1 over CDK2/Cyclin E
[10] = Selectivity for CDK4/Cyclin D1 over […]
[11] = target: Cyclin-dependent kinase 4/cyclin D1 (Homo sapiens, UniProt P11802+P24385); experiment: as §1; assay type: protein-complex assay
[12] = target: Mitogen-activated protein kinase kinase kinase 8 (Homo sapiens, UniProt P41279); experiment: Inhibition of Tpl2
Mitogen-activated protein kinase kinase kinase 8, sequence (P41279 whole entry): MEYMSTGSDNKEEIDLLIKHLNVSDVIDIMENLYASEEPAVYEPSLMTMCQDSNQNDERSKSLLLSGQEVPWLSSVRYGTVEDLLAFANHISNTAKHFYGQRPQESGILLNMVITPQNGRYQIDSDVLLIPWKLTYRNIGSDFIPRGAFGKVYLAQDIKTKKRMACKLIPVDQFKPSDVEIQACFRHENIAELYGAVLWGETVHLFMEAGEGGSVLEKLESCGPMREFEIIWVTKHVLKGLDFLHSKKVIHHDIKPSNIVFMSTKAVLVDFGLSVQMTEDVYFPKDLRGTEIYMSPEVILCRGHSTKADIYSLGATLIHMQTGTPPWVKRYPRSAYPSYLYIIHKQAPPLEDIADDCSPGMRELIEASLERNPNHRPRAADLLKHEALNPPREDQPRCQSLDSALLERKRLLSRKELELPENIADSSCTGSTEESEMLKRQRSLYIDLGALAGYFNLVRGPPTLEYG

[13] = target: Serine/threonine-protein kinase mTOR (Homo sapiens, UniProt P42345); experiment: Inhibition of mTOR
[14] = target: RAC-alpha serine/threonine-protein kinase (Homo sapiens, UniProt P31749); experiment: Inhibition of AKT
RAC-alpha serine/threonine-protein kinase, sequence (P31749 whole entry): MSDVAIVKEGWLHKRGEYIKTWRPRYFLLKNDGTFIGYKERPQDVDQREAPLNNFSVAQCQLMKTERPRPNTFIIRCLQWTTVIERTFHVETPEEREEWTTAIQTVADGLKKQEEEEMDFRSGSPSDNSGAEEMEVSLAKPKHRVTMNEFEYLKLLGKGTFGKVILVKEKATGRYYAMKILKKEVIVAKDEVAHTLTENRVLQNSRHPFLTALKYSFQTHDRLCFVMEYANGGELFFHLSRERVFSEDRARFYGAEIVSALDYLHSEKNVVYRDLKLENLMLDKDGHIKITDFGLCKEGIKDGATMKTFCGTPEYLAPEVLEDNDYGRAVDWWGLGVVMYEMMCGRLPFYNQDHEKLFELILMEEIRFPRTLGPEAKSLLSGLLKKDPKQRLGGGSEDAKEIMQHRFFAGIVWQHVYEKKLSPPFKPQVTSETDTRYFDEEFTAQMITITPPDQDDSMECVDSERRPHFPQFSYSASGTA

[15] = Inhibition of p70S6
[16] = target: Protein kinase C theta type (Homo sapiens, UniProt Q04759); experiment: Inhibition of PKCtheta
Protein kinase C theta type, sequence (Q04759 whole entry): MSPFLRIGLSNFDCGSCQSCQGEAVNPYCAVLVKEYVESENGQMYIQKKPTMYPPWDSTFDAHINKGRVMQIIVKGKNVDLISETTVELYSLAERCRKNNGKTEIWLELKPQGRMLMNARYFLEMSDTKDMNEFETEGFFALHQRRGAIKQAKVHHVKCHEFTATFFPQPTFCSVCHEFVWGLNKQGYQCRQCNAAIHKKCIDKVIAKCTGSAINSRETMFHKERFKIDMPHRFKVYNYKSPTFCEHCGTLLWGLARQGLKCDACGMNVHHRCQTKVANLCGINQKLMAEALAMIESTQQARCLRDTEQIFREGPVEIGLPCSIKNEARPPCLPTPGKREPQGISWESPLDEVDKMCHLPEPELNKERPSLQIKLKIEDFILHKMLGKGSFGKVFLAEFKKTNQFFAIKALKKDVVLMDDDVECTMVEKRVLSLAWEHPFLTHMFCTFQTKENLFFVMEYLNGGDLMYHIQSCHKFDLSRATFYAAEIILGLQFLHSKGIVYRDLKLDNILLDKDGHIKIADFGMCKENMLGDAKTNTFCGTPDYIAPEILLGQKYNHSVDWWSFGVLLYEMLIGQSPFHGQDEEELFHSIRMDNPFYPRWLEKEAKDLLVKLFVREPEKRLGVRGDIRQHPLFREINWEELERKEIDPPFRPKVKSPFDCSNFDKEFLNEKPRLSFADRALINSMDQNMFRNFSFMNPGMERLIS

[17] = target: Tyrosine-protein kinase Lyn (Homo sapiens, UniProt P07948); experiment: Inhibition of LYN
Tyrosine-protein kinase Lyn, sequence (P07948 whole entry): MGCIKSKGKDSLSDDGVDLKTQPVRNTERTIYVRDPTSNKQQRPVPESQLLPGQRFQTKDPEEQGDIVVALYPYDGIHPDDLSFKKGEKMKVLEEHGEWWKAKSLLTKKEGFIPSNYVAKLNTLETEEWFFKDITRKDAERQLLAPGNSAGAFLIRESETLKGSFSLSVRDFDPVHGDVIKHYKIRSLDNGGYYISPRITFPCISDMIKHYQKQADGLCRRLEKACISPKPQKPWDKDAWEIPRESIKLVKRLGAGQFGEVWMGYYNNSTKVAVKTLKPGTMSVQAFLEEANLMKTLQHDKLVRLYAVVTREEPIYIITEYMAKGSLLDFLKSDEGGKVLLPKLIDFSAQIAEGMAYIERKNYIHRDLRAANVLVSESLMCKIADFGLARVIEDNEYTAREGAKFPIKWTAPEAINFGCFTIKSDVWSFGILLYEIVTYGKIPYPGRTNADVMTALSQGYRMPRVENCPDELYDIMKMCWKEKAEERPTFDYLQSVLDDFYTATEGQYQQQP

[18] = target: Proto-oncogene tyrosine-protein kinase Src (Homo sapiens, UniProt P12931); experiment: Inhibition of Src
Proto-oncogene tyrosine-protein kinase Src, sequence (P12931 2-536 limits assumed): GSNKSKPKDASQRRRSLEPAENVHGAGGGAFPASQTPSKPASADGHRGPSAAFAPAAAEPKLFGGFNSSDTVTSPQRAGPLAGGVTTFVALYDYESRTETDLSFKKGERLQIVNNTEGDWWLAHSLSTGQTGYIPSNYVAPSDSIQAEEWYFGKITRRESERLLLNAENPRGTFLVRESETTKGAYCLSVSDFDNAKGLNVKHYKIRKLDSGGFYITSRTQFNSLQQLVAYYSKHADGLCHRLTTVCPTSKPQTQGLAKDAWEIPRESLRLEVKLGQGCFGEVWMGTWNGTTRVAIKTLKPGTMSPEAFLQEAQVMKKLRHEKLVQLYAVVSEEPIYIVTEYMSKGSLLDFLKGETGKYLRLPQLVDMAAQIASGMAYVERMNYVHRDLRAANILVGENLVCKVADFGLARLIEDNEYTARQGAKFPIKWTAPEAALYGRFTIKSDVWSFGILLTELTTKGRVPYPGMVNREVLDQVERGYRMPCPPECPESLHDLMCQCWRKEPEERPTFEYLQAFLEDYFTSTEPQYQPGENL

[19] = target: Tyrosine-protein kinase Lck (Homo sapiens, UniProt P06239); experiment: Inhibition of LCK
Tyrosine-protein kinase Lck, sequence (P06239 whole entry): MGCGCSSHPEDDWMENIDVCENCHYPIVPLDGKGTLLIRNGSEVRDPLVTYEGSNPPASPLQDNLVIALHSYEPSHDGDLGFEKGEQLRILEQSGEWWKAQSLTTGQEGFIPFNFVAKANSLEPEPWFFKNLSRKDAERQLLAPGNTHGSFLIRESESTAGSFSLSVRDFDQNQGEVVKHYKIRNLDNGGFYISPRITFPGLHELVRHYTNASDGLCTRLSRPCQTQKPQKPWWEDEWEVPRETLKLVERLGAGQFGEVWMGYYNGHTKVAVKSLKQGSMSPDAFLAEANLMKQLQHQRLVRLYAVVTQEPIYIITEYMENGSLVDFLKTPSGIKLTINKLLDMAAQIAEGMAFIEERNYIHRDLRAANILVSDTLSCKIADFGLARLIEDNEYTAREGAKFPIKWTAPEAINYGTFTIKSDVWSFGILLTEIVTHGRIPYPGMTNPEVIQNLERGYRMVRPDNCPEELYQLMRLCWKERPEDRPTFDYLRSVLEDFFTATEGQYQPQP

[20] = target: Signal transducer and activator of transcription 3 (Homo sapiens, UniProt P40763); experiment: Inhibition of STAT3
[21] = target: MAP kinase-activated protein kinase 2 (Homo sapiens, UniProt P49137); experiment: Inhibition of MK2

| SMILES | IC50 [1] | IC50 [2] | IC50 [3] | IC50 [4] | IC50 [7] | other results |
| --- | --- | --- | --- | --- | --- | --- |
| COc1ccc(CN/C=C2\C(=O)NC(=O)c3ccc(-c4ccoc4)cc32)cc1O | 1.1 µM | 0.002 µM |  |  |  |  |
| O=C1NC(=O)c2ccc(Br)cc2/C1=C/NCc1cc[nH]c(=O)c1 |  |  | > 50 µM |  |  |  |
| COc1ccc(CN/C=C2\C(=O)NC(=O)c3ccc(I)cc32)cc1O |  |  |  | 2 µM | 3.7 µM | half-life [5]: 18 min; half-life [6]: 6 min |
| COc1ccc(CN(C)/C=C2\C(=O)NC(=O)c3ccc(Br)cc32)cc1O |  |  |  |  |  | IC50 [8]: < 50 µM |
| COc1cnc(CN/C=C2\C(=O)NC(=O)c3ccc(I)cc32)cc1O |  | 0.01 µM | 14.7 µM | 1.3 µM | 1 µM | half-life [5]: > 30 min; half-life [6]: > 30 min |
| O=C1NC(=O)c2ccc(C3CCCC3)cc2/C1=C/NCc1cc(O)c(-c2ccoc2)cn1 |  | < 0.005 µM | 3.1 µM | 0.81 µM | 0.83 µM |  |
| COc1ccc(CN/C=C2\C(=O)NC(=O)c3ccc(Br)cc32)cc1O | < 50 µM | 0.03 µM |  |  |  | Ratio IC50 [9]: 1600; IC50 [8]: < 50 µM; Ratio IC50 [10]: 1600 |
| CCCOc1cnc(CN/C=C2\C(=O)NC(=O)c3ccc(I)cc32)cc1O |  | 0.03 µM | 25.3 µM | 0.73 µM | 0.88 µM | half-life [5]: > 30 min; half-life [6]: > 30 min |
| O=C1NC(=O)c2ccc(Br)cc2/C1=C/NCc1ccc(O)c(O)c1 | < 50 µM | 0.04 µM |  |  |  | IC50 [8]: < 50 µM |
| CCCOc1cnc(CN/C=C2\C(=O)NC(=O)c3ccc(C4CCCC4)cc32)cc1O |  | < 0.005 µM | 3.1 µM | 0.15 µM | 0.3 µM |  |
| COc1ccc(C(C)N/C=C2\C(=O)NC(=O)c3ccc(Br)cc32)cc1O (centres undefined) | < 50 µM | 0.37 µM |  |  |  | IC50 [8]: < 50 µM |
| Nc1ccc(CN/C=C2\C(=O)NC(=O)c3ccc(Br)cc32)cc1O |  |  |  |  |  | IC50 [8]: < 50 µM |
| O=C1NC(=O)c2ccc(I)cc2/C1=C/NCc1ccc(-c2ccncc2)c(O)c1 | > 50 µM | 0.008 µM | > 50 µM | 2.3 µM | 1.5 µM |  |
| COc1ccc(CN/C=C2\C(=O)NC(=O)c3ccc(-n4cccc4)cc32)cc1O | 3.1 µM |  |  |  |  |  |
| COc1ccc(CN/C=C2\C(=O)NC(=O)c3ccc(Cl)cc32)cc1O | < 50 µM |  |  |  |  | IC50 [8]: < 50 µM |
| O=C1NC(=O)c2ccc(I)cc2/C1=C/NCc1ccc(-c2cccnc2)c(O)c1 |  | 0.01 µM | > 50 µM | 0.44 µM | 1.1 µM |  |
| COc1cc(CN/C=C2\C(=O)NC(=O)c3ccc(Br)cc32)cc(O)c1OC | < 50 µM | 0.007 µM |  |  |  | IC50 [8]: < 50 µM |
| O=C1NC(=O)c2ccccc2/C1=C/NCc1ccc(O)cc1 | 17.3 µM |  |  |  |  | IC50 [11]: < 50 µM |
| CCCOc1ccc(CN/C=C2\C(=O)NC(=O)c3ccc(I)cc32)cc1O | 2.6 µM | 0.02 µM | > 50 µM | 0.65 µM | 1.8 µM | half-life [5]: > 30 min; half-life [6]: 15 min |
| CCCOc1ccc(CN/C=C2\C(=O)NC(=O)c3ccc(I)cc32)nc1O | 0.7 µM | 0.02 µM | 10.1 µM | 0.67 µM | 1.4 µM | half-life [5]: > 30 min; half-life [6]: > 30 min |
| O=C1NC(=O)c2ccccc2/C1=C/Nc1ccc(O)c(O)c1 |  | 7.8 µM |  |  |  |  |

| SMILES | IC50 [1] | IC50 [2] | IC50 [3] | IC50 [4] | IC50 [7] | other results |
| --- | --- | --- | --- | --- | --- | --- |
| COc1cnc(CN/C=C2\C(=O)NC(=O)c3ccc(I)cc32)nc1O | > 50 µM | 0.44 µM | > 50 µM | > 50 µM | > 50 µM |  |
| O=C1NC(=O)c2ccc(I)cc2/C1=C/NCc1ccc(-c2ccco2)c(O)c1 |  | 0.1 µM | > 50 µM | 0.38 µM | 0.7 µM |  |
| COc1coc(CN/C=C2\C(=O)NC(=O)c3ccc(Br)cc32)cc1=O | 16.9 µM | 1.3 µM | > 50 µM |  |  |  |
| CCCOc1cnc(CN/C=C2\C(=O)NC(=O)c3ccc(C(C)(C)C)cc32)cc1O |  | 0.02 µM | 6.2 µM | 0.43 µM | 0.7 µM |  |
| CCCOc1ccc(CN/C=C2\C(=O)NC(=O)c3ccc(Br)cc32)cc1O | 34.5 µM |  |  |  |  |  |
| COc1ccc(CN/C=C2\C(=O)NC(=O)c3ccccc32)cc1O | 6.9 µM | 0.19 µM | 48.7 µM |  |  |  |
| COc1ccc(CN/C=C2\C(=O)NC(=O)c3ccc(-c4ccsc4)cc32)cc1O |  |  |  |  |  | Ratio IC50 [9]: 9000; Ratio IC50 [10]: 11000 |
| O=C1NC(=O)c2ccccc2/C1=C/NCc1cccc(O)c1 | 16.9 µM |  |  |  |  | IC50 [8]: < 50 µM |
| Cc1ccc(CN/C=C2\C(=O)NC(=O)c3ccc(I)cc32)cc1O | 13.6 µM | 0.03 µM |  | 6.7 µM | 8.2 µM |  |
| O=C1NC(=O)c2ccccc2/C1=C/NCc1ccc(O)c(O)c1 |  | 1.2 µM | 36.6 µM |  |  |  |
| COc1ccc(CN/C=C2\C(=O)NC(=O)c3ccc(-c4ccccc4)cc32)cc1O | 25.9 µM | 0.01 µM | 34.7 µM |  |  |  |
| CCOc1ccc(CN/C=C2\C(=O)NC(=O)c3ccc(Br)cc32)cc1O |  |  |  |  |  | IC50 [8]: < 50 µM |
| O=C1NC(=O)c2ccc(I)cc2/C1=C/NCc1ccc(-c2ccccc2)c(O)c1 |  |  |  | 0.42 µM | 0.88 µM |  |
| CC(C)(C)c1ccc2c(c1)/C(=C/NCc1cc(O)c(-c3ccccc3)cn1)C(=O)NC2=O |  | 0.03 µM |  | 0.15 µM | 0.7 µM |  |
| O=C1NC(=O)c2ccc(I)cc2/C1=C/NCc1ccc(-c2ccoc2)c(O)c1 |  | 0.06 µM | 24.4 µM |  |  | IC50 [12]: > 4 µM; IC50 [13]: 18 µM; IC50 [14]: 10.2 µM; half-life [5]: > 30 min; IC50 [15]: > 30 µM; IC50 [16]: 25.9 µM; IC50 [17]: 8.5 µM; half-life [6]: 18 min; IC50 [18]: > 30 µM; IC50 [19]: > 30 µM; IC50 [20]: 1.7 µM; IC50 [21]: 19 µM |
| CC(C)(C)c1ccc2c(c1)/C(=C/NCc1cc(O)c(-c3ccoc3)cn1)C(=O)NC2=O |  | 0.02 µM | 9.5 µM | 0.48 µM | 1.4 µM |  |
| O=C1NC(=O)c2ccc(I)cc2/C1=C/NCc1ccc(-c2ccccn2)c(O)c1 | > 50 µM | 19.3 µM | > 50 µM | 0.25 µM | 0.54 µM |  |
| COc1ccc(CN/C=C2\C(=O)NC(=O)c3ccc(F)cc32)cc1O | 6.6 µM |  |  |  |  | IC50 [8]: < 50 µM |
| COCCOc1ccc(CN/C=C2\C(=O)NC(=O)c3ccc(Br)cc32)cc1O | < 50 µM | 0.04 µM |  |  |  | IC50 [8]: < 50 µM |
| O=C1NC(=O)c2ccccc2/C1=C/NCCc1ccc(O)c(O)c1 |  | 16.2 µM |  |  |  |  |
| O=C1NC(=O)c2ccc(I)cc2/C1=C/NCc1cc(O)c(-c2ccoc2)cn1 |  |  |  | 0.55 µM | 2.7 µM | half-life [5]: > 30 min; half-life [6]: 22 min |
